Assay results published in patent US20040152640A1, “Preparation for the prevention and or treatment of altered bone metabolism” (priority 2001, published 2004).

Tested on: mouse bone marrow cells
Test: Alkaline phosphatase (ALP) activity assay in mouse bone marrow cells (marker for osteoblast differentiation)
Format: cell-based
Parameters: dose or concentration left out as unconfirmed
Details: mice bone marrow cells, 3 weeks exposure; with ascorbic acid and β-glycerolphosphate; stimulation more pronounced than genistein
Protocol: Bone marrow cells were isolated from six months old female NMRI mice. After washing, the cells were diluted in phenol red free α-MEM (1% p/s, 15% charcoal treated FCS) and seeded in 24-well plates (1.25*10^6 cells/well). After 24 hours incubation (37° C., 5% CO2) the cells were exposed to the active components (1*10^−5, 1*10^−6 and 1*10^−7 M) together with ascorbic acid (50 μg/ml) and β-glycerolphosphate (1 mM). Exposure media were refreshed every 3 days. After 2 and 3 weeks of incubation, cells were washed with PBS and stored at −20° C. After lysis DNA amounts and alkaline phosphatase activities were determined as described below. The DNA amounts are measured to determine to the number of cells and the alkaline phosphatase activity is used as a marker for osteoblast differentiation. 300 μl lysis buffer (1×SSC/0.01% SDS) was added to the frozen cells. After 1 hour incubation (37° C.) the plates were sonified for 10 minutes and cell suspensions were used for ALP activity measurements. 25 μl cell lysate was transferred in duplicate to 96-well plates. 25 μl of 1*SSC/0.01% SDS served as a negative control. […] ALP activity was measured at a wavelength of 405 nm at room temperature during 10 minutes at 30-second intervals. […] Activity is expressed as nmol p-nitrophenol production/minute/well. (Mean±sem, 2 independent experiments measured in duplicate)

Structure (SMILES) | alkaline phosphatase signal in differentiated osteoblasts
O=c1cc(-c2ccc(O)c(O)c2)oc2cc(O)cc(O)c12 [luteolin] | increased alkaline phosphatase signal
O=c1cc(-c2ccc(O)cc2)oc2cc(O)cc(O)c12 [apigenin] | increased alkaline phosphatase signal
